Marks after values point to notes of the source that are not given here.
What was measured:
[1] = Fit of relaxivity vs pH profiles: proton exchange kinetic and relaxation parameters; type: physicochemical; conditions: 0.15 M NaCl, 298 K
Experimental: At pH >3, the r1 values of GdL2 decrease with the increase of pH from 6.6 mM^–1 s^–1 to reach a plateau of 5.1 mM^–1 s^–1 around pH = 7.5. A further increase of the pH results in the slight increase of r1 reaching a maximum around pH = 9.5. Finally, at pH >9.5, another small decrease in r1 is observed. On the other hand, in the case of GdL1, the r1 values are independent from the pH in the range 4.0–7.5, whereas at pH >8.0, r1 increases up to 5.2 mM^–1 s^–1. The r1 values of GdL1 were measured in the pH range 4–10 in order to avoid the hydrolysis of the methyl ester. […] Then, the overall relaxivity, r1, is given by eq 1: [drawing 1] 1 where r1^is, r1^os, and r1^pr are the relaxivity components due to the inner and outersphere water molecules and the −OH group, respectively. r1^pr can be expressed as follows:[26]−[28] [drawing 2] 2
According to the proposed reaction mechanism, the rate of acid-catalyzed proton exchange of GdL2 and Gd(HL2) is vH = kH[H3O^+][GdL2] and vH = kH[H3O^+][Gd(HL2)], where the kH rate constant characterizes the acid-catalyzed proton exchange processes of GdL2 and Gd(HL2) species. Because of the fast internal rearrangement, the alcoholic −OH and −COOH protons cannot be distinguished, and their lifetime is τp = (kH[H^+])^−1 in both cases. The rate of the base-catalyzed exchange between the alcoholic −OH proton of GdL1 and GdL2 and the bulk is vOH = kOH[OH^–][GdL] and τp = (kOH [OH^–])^−1, where the rate constant kOH characterizes the base-catalyzed proton exchange process for GdL1 and GdL2. Both acid- and base-catalyzed exchange mechanisms require the diffusion-controlled formation of an H-bonded complex and subsequently the rapid separation of the corresponding conjugate acid and base.[29] By considering the proposed reaction mechanism, eq 2 can be rewritten as follows: [drawing 3] 3 where αH = KGdLH–1[H^+] + KGdHLKGdLH–1[H^+]^2, ^GdHLr1^is+os, ^GdLr1^is+os, and ^GdLH–1r1^is+os are the sum of r1^is and r1^os for GdHL, GdL, and GdLH–1 species, respectively. Whereas for GdL2 the experimental data (Figure 1) were fitted to eq 3 (Table 2), in the case of GdL1, eq 3 was modified to account for the formation of GdL1 and Gd(L1)H–1 species and the base-catalyzed exchange of the −OH proton. Thus, the first and fourth terms and kH[H^+] of the denominator in the last term in the brackets were not considered.
Proton relaxation measurements (1/T1) and the resulting 1/T1 NMRD profiles were measured on a fast-field cycling (FFC) Stelar SmarTracer relaxometer over a continuum of magnetic field strengths from 0.000 24 to 0.25 T (corresponding to 0.01–10 MHz proton Larmor frequencies). The relaxometer operates under computer control with an absolute uncertainty in 1/T1 of ±1%. […] Furthermore, the real temperature inside the probe head was additionally monitored by a Fluke 52 k/j digital thermometer (Fluke, Zürich, Switzerland). The gadolinium concentration was determined by measuring the bulk magnetic susceptibility shifts of the t-BuOH ^1H NMR signal. Additional data in the 20–120 MHz frequency range were obtained with a high field relaxometer (Stelar) equipped with the HTS-110 3T metrology cryogen-free superconducting magnet. […] The pH-dependent relaxivity measurements of GdL1 and GdL2 complexes were carried out by direct titration of the samples (GdL2, 3.0 < pH < 12.5; GdL1, 4 < pH < 10). The pH was adjusted by the stepwise addition of concentrated NaOH or HCl solution. […]

[2] = Conditional stability constant pGd; type: physicochemical; conditions: pGd = −log[Gd]free, [Gd^3+] = 1 μM, [L] = 10 μM, pH = 7.4; calculated from the constants

Structure (SMILES): O=C([O-])CN1CCN(CC(=O)[O-])CCN(CC(O)C(=O)O)CCN(CC(=O)[O-])CC1.[Gd+3] (stereo not drawn) [GdL2]
- ^GdHLr1^is+os ([1]; 20 MHz): 5.11 ± 0.08 mM^–1 s^–1
- ^GdLH–1r1^is+os ([1]; 20 MHz): 4.93 ± 0.03 mM^–1 s^–1
- ^GdLr1^is+os ([1]; 20 MHz): 4.85 ± 0.04 mM^–1 s^–1
- kH × 10^–11 ([1]; acid-catalyzed proton exchange): 1.5 ± 0.2 M^–1 s^–1
- kOH × 10^–10 ([1]; base-catalyzed proton exchange): 0.17 ± 0.04 M^–1 s^–1

Structure (SMILES): O=C(O)CN1CCN(CC(=O)O)CCN(C[C@@H](O)C(=O)O)CCN(CC(=O)O)CC1 [L2, (R)2,2′,2″-(10-(2-Carboxy-2-hydroxyethyl)-1,4,7,10-tetraazacyclododecane-1,4,7-triyl) Triacetic Acid]
- pGd [2]: 16.87 ^h

Source: PMC8769378, “Underlining the Importance of Peripheral Protic Functional Groups to Enhance the Proton Exchange of Gd-Based MRI Contrast Agents” (Inorganic Chemistry, 2021)
